Assay results reported in patent US12491182B2, “Polymorphs of triazole antifungal compound PC945” (Pulmocide Limited, priority 2019, dated 2025).
“And” between values parts separate entries of the source, which are not always exact repeats. Identical values can stand only once.

Key:
[1] = Thermo-gravimetric analysis (degradation onset); assay type: physicochemical
Method: TGA data were collected on a TA Instrument Q500 TGA, equipped with a 16 position auto-sampler. The instrument was temperature calibrated using certified Alumel and Nickel. Typically 5-10 mg of sample was loaded onto a pre-tared aluminium DSC pan and heated at 10° C./min from ambient temperature to 350° C. A nitrogen purge at 60 mL/min was maintained over the sample. The instrument control software was Advantage for Q Series v2.5.0.256 and Thermal Advantage v5.5.3 and the data were analysed using Universal Analysis v4.5A.
TGA profiling was carried out according to methods described above and was used to determine the amount of residual solvents associated with the polymorphs of Compound I. In addition, it was used to measure the quantity of solvent released on heating from the solvated forms of Compound I. Typical residual solvent levels found in samples of the polymorphs of Compound I are as follows.

[2] = Comparative pharmacokinetic profiling of Forms 1 and 2 by inhalation administration to rats; assay type: in vivo, male RccHan:WIST rat; settings: male rats; for Drug Concentration in Animal by No. (plasma) / Drug Concentration Mean (plasma): nominal 2.2 mg/kg; for Drug Concentration in Animal by No. (plasma): individual animals; for Drug Concentration Mean (plasma): group mean
Source text: A study was undertaken to compare the time-course of unchanged drug concentrations in plasma following a single inhalation dose of either Form 1 or Form 2 in rats.
The male RccHan™:WIST rat was considered a suitable species and strain because of its acceptance by regulatory agencies. The inhalation route of administration was chosen to simulate the conditions of clinical administration. A total of 14 of animals (six animals per group with two spare animals), 10 to 12 weeks of age and weighing 306 to 341 g at the start of drug treatment, were used in the study. Treatment consisted of a single 2 hour inhalation exposure with a nebulised formulation of either micronised Form 1 (98.94% purity) to Group 1 animals or micronised Form 2 (98.10% purity) to Group 2 animals. The pharmacokinetic parameters of the two polymorphic forms were determined to support pharmacology and toxicology studies in animals and clinical studies in man.
Suspensions were manufactured by first preparing a concentrated solution of the surfactants (wetting solution) and a saline solution. These were then used to make the vehicle. A saline solution was prepared as follows. Sodium chloride (50 g) was weighed into a 5000 mL volumetric flask, made up to volume with water, stirred with a magnetic stirrer for 10 min and then passed through a 0.22 μm membrane filter. Wetting solution was prepared as follows. Lipoid S100 (10 g) was weighed into a 2000 mL Duran bottle, 1000 g of propylene glycol was added and the mixture was stirred on a Silverson mixer equipped with a 1″ high shear screen for 1 min at 8000 rpm and then passed through a 0.22 μm membrane filter. Vehicle was prepared as follows. The wetting solution (500 mL) was transferred into a 5000 mL volumetric flask, made to volume with saline solution, stirred with a magnetic stirrer for 10 min and then passed through a 0.22 μm membrane filter.
A 1000 mL batch of 4 mg/mL suspension of Compound I was prepared as follows. Compound I (4.00 g) was weighed into a small beaker, 100 mL of wetting solution was added and the mixture was stirred with a Silverson mixer equipped with a 1″ high shear screen for 5 min at 8000 rpm. The mixture was then transferred into a 5000 mL Duran bottle using saline solution and stirred using a Silverson mixer equipped with a 1″ high shear screen for 5 min at 8000 rpm, after which it was stored between 2 and 8° C. Higher or lower strength suspensions (range 0.2 to 20 mg/mL) were prepared by adjusting the input weight of API as appropriate for higher mg/mL suspensions or by further diluting with vehicle for lower mg/mL suspensions. All formulations were magnetically stirred for at least 30 min, and assessed visually prior to administration.
Rats were acclimatised to the inhalation dosing procedure for three consecutive days prior to dosing. Animals were treated with the test substance by aerosol inhalation administration for 120 min via snout only exposure, at a target aerosol concentration of 25.2 μg/L. The estimations of inhaled dose from an exposure duration of 2 hr and an assumed body weight of 300 g were calculated using the formula:
[formula] where: C is the aerosol concentration (μg/L); RMV is the respiratory minute volume (L/min); D is the duration of exposure (120 mins) and BW is the group mean body weight (kg). The mean achieved aerosol concentrations, estimated inhaled dose and particle size distribution (PSD) summary data are presented below. (Table 14).
Venous blood samples (0.3 mL) were taken from the tail vein of animals and samples collected after dosing (2 hr from the start of dose administration) and thereafter at times 3, 4, 6, 8, 12, 24, 28, 32, 36 and 48 hr following treatment. Samples were treated with K2EDTA anticoagulant, spun at 2000 g for 10 min at 4° C. and then stored frozen (−20° C.±10) whilst awaiting analysis. Plasma samples were subsequently analysed for Compound I by LGC using a validated LC-MS/MS method. […]

[3] = inhalation, IAD (immediately after dosing)

Compound: Cc1cc(N2CCN(c3ccc(C(=O)Nc4ccc(F)cc4)cc3)CC2)ccc1OC[C@@H]1CO[C@@](Cn2cncn2)(c2ccc(F)cc2F)C1 [Form 2, 4-(4-(4-(((3R,5R)-5-((1H-1,2,4-triazol-1-yl)methyl)-5-(2,4-difluorophenyl)tetrahydrofuran-3-yl)methoxy)-3-methylphenyl)piperazin-1-yl)-N-(4-fluorophenyl)benzamide]
- temperature at which sample begun to degrade (TGA) ([1]; material isolated from MIBK): 320 °C
- temperature at which degradation started (TGA) ([1]; sample derived from EtOH): 320 °C
- dose normalised AUCt, fold higher than Form 1 ([2]; inhalation): 1.7 fold
- Drug Concentration in Animal by No. (plasma) ([2]; inhalation, 3 hr from start of exposure): 8.95 ng/mL and 5.40 ng/mL and 6.01 ng/mL
- Drug Concentration Mean (plasma) ([2]; inhalation, 3 hr): 6.79 ng/mL
- Drug Concentration in Animal by No. (plasma) ([2]; inhalation, 4 hr from start of exposure): 7.53 ng/mL and 9.31 ng/mL and 8.88 ng/mL
- Drug Concentration Mean (plasma) ([2]; inhalation, 4 hr): 8.57 ng/mL
- Drug Concentration in Animal by No. (plasma) ([2]; inhalation, 6 hr from start of exposure): 11.8 ng/mL and 5.38 ng/mL
- Drug Concentration Mean (plasma) ([2]; inhalation, 6 hr): 8.59 ng/mL
- Drug Concentration in Animal by No. (plasma) ([2]; inhalation, 8 hr from start of exposure): 6.85 ng/mL and 5.90 ng/mL and 6.79 ng/mL
- Drug Concentration Mean (plasma) ([2]; inhalation, 8 hr): 6.51 ng/mL
- Drug Concentration in Animal by No. (plasma) ([2]; inhalation, 12 hr from start of exposure): 10.7 ng/mL and 4.57 ng/mL and 5.84 ng/mL
- Drug Concentration Mean (plasma) ([2]; inhalation, 12 hr): 7.04 ng/mL
- Drug Concentration in Animal by No. (plasma) ([2]; inhalation, 24 hr from start of exposure): 11.5 ng/mL
- Drug Concentration in Animal by No. (plasma) ([2]; inhalation, 28 hr from start of exposure): 8.15 ng/mL and 3.17 ng/mL and 3.32 ng/mL and 4.15 ng/mL and 2.94 ng/mL and 2.93 ng/mL
- Drug Concentration Mean (plasma) ([2]; inhalation, 28 hr): 4.11 ng/mL
- Drug Concentration in Animal by No. (plasma) ([2]; inhalation, 32 hr from start of exposure): 7.72 ng/mL and 3.50 ng/mL and 3.33 ng/mL and 4.05 ng/mL and 2.75 ng/mL and 2.51 ng/mL
- Drug Concentration Mean (plasma) ([2]; inhalation, 32 hr): 3.98 ng/mL
- Drug Concentration in Animal by No. (plasma) ([2]; inhalation, 36 hr from start of exposure): 6.28 ng/mL and 2.43 ng/mL (2×) and 2.54 ng/mL and 3.59 ng/mL and 2.49 ng/mL
- Drug Concentration Mean (plasma) ([2]; inhalation, 36 hr): 3.29 ng/mL
- Drug Concentration in Animal by No. (plasma) ([2]; inhalation, 48 hr from start of exposure): 3.78 ng/mL and 1.79 ng/mL and 1.89 ng/mL and 2.52 ng/mL and 1.83 ng/mL and 1.91 ng/mL
- Drug Concentration Mean (plasma) ([2]; inhalation, 48 hr): 2.29 ng/mL
- Drug Concentration Mean (plasma) [2, 3]: 2.66 ng/mL
- Drug Concentration in Animal by No. (plasma) [2, 3]: 2.24 ng/mL and 2.59 ng/mL and 3.15 ng/mL
- AUCt dose normalised ([2]; inhalation, AUCt of Form 2 normalised to dose achieved for Form 1 (2.48 mg/kg), 2.48 mg/kg): 202 ng·h/mL
- time up to which plasma concentrations remained quantifiable ([2]; inhalation, after the start of exposure (last sampling time)): 48 h
- Cmax (maximum mean plasma concentration) ([2]; single 2 hr inhalation of nebulised aqueous suspension, nominal dose 2.2 mg/kg, 2.2 mg/kg): 8.59 ng/mL
- AUCt ([2]; single 2 hr inhalation, nominal dose 2.2 mg/kg, 0-48 hr, 2.2 mg/kg): 230 ng·h/mL
- Tmax ([2]; single 2 hr inhalation, nominal dose 2.2 mg/kg, from start of exposure): 6 h
